Laboratory results taken from ChEMBL document CHEMBL1201862, “PubChem BioAssay data set” (2004).
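Test compounds were applied to cells in 96-well plates for 48 hours at 5 doses. GI50: concentration for 50% inhibition of growth.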 Active and inactive are the calls of the source. No stated cut-off is given here; in the data, active = GI50 up to about 1.1 µM and inactive = higher.

Tests used:
Assay in all cases: DTP human tumour cell line panel, 48 h
HT-29 = test system: HT-29
LOX IMVI = test system: LOX IMVI
CAKI-1 = test system: CAKI-1
HOP-92 = test system: HOP-92
PC-3 = test system: PC-3
TK-10 = test system: TK-10
CCRF-CEM = test system: CCRF-CEM
NCI-H460 = test system: NCI-H460
RXF 393 = test system: RXF 393
UO-31 = test system: UO-31
ACHN = test system: ACHN
Hs-578T = test system: Hs-578T
OVCAR-4 = test system: OVCAR-4
SR = test system: SR
SF-268 = test system: SF-268
MOLT-4 = test system: MOLT-4
KM12 = test system: KM12
NCI-H23 = test system: NCI-H23
HOP-62 = test system: HOP-62
UACC-62 = test system: UACC-62

| SMILES | GI50 (HT-29) | GI50 (LOX IMVI) | GI50 (CAKI-1) | GI50 (HOP-92) | GI50 (PC-3) | GI50 (TK-10) | GI50 (CCRF-CEM) | GI50 (NCI-H460) | GI50 (RXF 393) | GI50 (UO-31) | GI50 (ACHN) | GI50 (Hs-578T) | GI50 (OVCAR-4) | GI50 (SR) | GI50 (SF-268) | GI50 (MOLT-4) | GI50 (KM12) | GI50 (NCI-H23) | GI50 (HOP-62) | GI50 (UACC-62) |
| --- | --- | --- | --- | --- | --- | --- | --- | --- | --- | --- | --- | --- | --- | --- | --- | --- | --- | --- | --- | --- |
| CN(C)/C=N/S(=O)(=O)c1nn2c(C=O)c(-c3ccc(Cl)cc3)nc2s1 | 0.196 µM (active) | 1.25 µM (inactive) | 0.995 µM (active) | 2.34 µM (inactive) | 2.46 µM (inactive) | 1.5 µM (inactive) | 0.228 µM (active) | 6.28 µM (inactive) | 1.51 µM (inactive) | 1.02 µM (active) | 1.15 µM (inactive) | 3.43 µM (inactive) | 1.81 µM (inactive) | 0.767 µM (active) | 3.46 µM (inactive) | 0.52 µM (active) | 3.63 µM (inactive) | 2.34 µM (inactive) | 13.2 µM (inactive) | 3.91 µM (inactive) |
| Cc1ccc(-n2cc(-c3ccc(Cl)cc3)c3c(NNC(=S)NCc4ccccc4)ncnc32)cc1 | 14.3 µM (inactive) | 5.06 µM (inactive) | 5.46 µM (inactive) | 25.4 µM (inactive) | 2.59 µM (inactive) | 11.1 µM (inactive) | 2.77 µM (inactive) | 2.07 µM (inactive) | 14.3 µM (inactive) | 10.1 µM (inactive) | 13.6 µM (inactive) | 60.7 µM (inactive) | 17.5 µM (inactive) | 3.61 µM (inactive) | 8.53 µM (inactive) | 6.38 µM (inactive) | 3.66 µM (inactive) | 13.5 µM (inactive) | 16.6 µM (inactive) | 18.1 µM (inactive) |
| CSCCC(NCc1c(O)ccc2c(-c3ccccc3)cc(=O)oc12)C(=O)O (stereo not given) | > 100 µM (inactive) | > 100 µM (inactive) | > 100 µM (inactive) | > 100 µM (inactive) | > 100 µM (inactive) | > 100 µM (inactive) | > 100 µM (inactive) | > 100 µM (inactive) | > 100 µM (inactive) | > 100 µM (inactive) | > 100 µM (inactive) | > 100 µM (inactive) | > 100 µM (inactive) | > 100 µM (inactive) | > 100 µM (inactive) | > 100 µM (inactive) | > 100 µM (inactive) | > 100 µM (inactive) | > 100 µM (inactive) | > 100 µM (inactive) |
| Cc1ccc(S(=O)(=O)NC(CCC(=O)NN)C(=O)NN)cc1 (stereo not given) | > 100 µM (inactive) | > 100 µM (inactive) | > 100 µM (inactive) | > 100 µM (inactive) | > 100 µM (inactive) | > 100 µM (inactive) | > 100 µM (inactive) | 0.067 µM (active) | > 100 µM (inactive) | > 100 µM (inactive) | > 100 µM (inactive) | > 100 µM (inactive) | 16.5 µM (inactive) | > 100 µM (inactive) | > 100 µM (inactive) | > 100 µM (inactive) | > 100 µM (inactive) | > 100 µM (inactive) | > 100 µM (inactive) | > 100 µM (inactive) |
| c1c[nH]c(CN2CCOCC2)n1 | > 100 µM (inactive) | > 100 µM (inactive) | > 100 µM (inactive) | > 100 µM (inactive) | > 100 µM (inactive) | > 100 µM (inactive) | > 100 µM (inactive) | > 100 µM (inactive) | > 100 µM (inactive) | > 100 µM (inactive) | > 100 µM (inactive) | > 100 µM (inactive) | > 100 µM (inactive) | > 100 µM (inactive) | > 100 µM (inactive) | > 100 µM (inactive) | > 100 µM (inactive) | > 100 µM (inactive) | > 100 µM (inactive) | > 100 µM (inactive) |
| Cc1nc2ccccc2n1CCc1nc2ccccc2s1 | 21.1 µM (inactive) | 64.9 µM (inactive) | > 100 µM (inactive) | 32.9 µM (inactive) | 39.9 µM (inactive) | 45.4 µM (inactive) | 14 µM (inactive) | 31.2 µM (inactive) | 50 µM (inactive) | 1.93 µM (inactive) | 20 µM (inactive) | 53.6 µM (inactive) | 42.3 µM (inactive) | 11.6 µM (inactive) | 53.2 µM (inactive) | 12.9 µM (inactive) | 56.1 µM (inactive) | 30 µM (inactive) | > 100 µM (inactive) | 60.8 µM (inactive) |
| Oc1cc(O)c2c(c1)OC(c1ccc(O)c(O)c1)C(OC1(c3cc(O)c(O)c(O)c3)Oc3cc(O)cc(O)c3C(O)C1O)C2 (stereo not given) | 18.1 µM (inactive) | 18.3 µM (inactive) | 29.8 µM (inactive) | 29.6 µM (inactive) | 49.7 µM (inactive) | > 100 µM (inactive) | 15.1 µM (inactive) | 18.4 µM (inactive) | 73.5 µM (inactive) | 18 µM (inactive) | 38.4 µM (inactive) | 36.6 µM (inactive) | 26.4 µM (inactive) | 29.2 µM (inactive) | 25.9 µM (inactive) | 23.5 µM (inactive) | 26.1 µM (inactive) | 20.9 µM (inactive) | 24 µM (inactive) | 37.6 µM (inactive) |
| S=C=Nc1ccc(CSc2nc3ccccc3[nH]2)cc1 | 18.4 µM (inactive) | 17.2 µM (inactive) | 17.7 µM (inactive) | 16.8 µM (inactive) | 17.9 µM (inactive) | 20.1 µM (inactive) | 29.5 µM (inactive) | 20.8 µM (inactive) | 16.4 µM (inactive) | 19.5 µM (inactive) | 14.3 µM (inactive) | 41.6 µM (inactive) | 17.3 µM (inactive) | 20.7 µM (inactive) | 17 µM (inactive) | 23.7 µM (inactive) | 17.5 µM (inactive) | 17.6 µM (inactive) | 17.5 µM (inactive) | 15.8 µM (inactive) |
| CCCCCCCCCCCC(=O)Oc1c(Cl)cc(Cl)c(OC(=O)C(=O)Oc2c(Cl)cc(Cl)c(OC(=O)CCCCCCCCCCC)c2Cl)c1Cl | > 100 µM (inactive) | > 100 µM (inactive) | > 100 µM (inactive) | > 100 µM (inactive) | > 100 µM (inactive) | > 100 µM (inactive) | > 100 µM (inactive) | > 100 µM (inactive) | > 100 µM (inactive) | > 100 µM (inactive) | > 100 µM (inactive) | > 100 µM (inactive) | > 100 µM (inactive) | > 100 µM (inactive) | > 100 µM (inactive) | 46.6 µM (inactive) | > 100 µM (inactive) | > 100 µM (inactive) | > 100 µM (inactive) | > 100 µM (inactive) |
| COCOc1cc(OC)ccc1C/C=N/O | > 100 µM (inactive) | > 100 µM (inactive) | > 100 µM (inactive) | > 100 µM (inactive) | > 100 µM (inactive) | > 100 µM (inactive) | > 100 µM (inactive) | > 100 µM (inactive) | > 100 µM (inactive) | > 100 µM (inactive) | > 100 µM (inactive) | > 100 µM (inactive) | > 100 µM (inactive) | > 100 µM (inactive) | > 100 µM (inactive) | > 100 µM (inactive) | > 100 µM (inactive) | > 100 µM (inactive) | > 100 µM (inactive) | > 100 µM (inactive) |
